Our source for the inhibition values is paper PMC6934184, “Selective DNA-PKcs inhibition extends the therapeutic index of localized radiotherapy and chemotherapy” (The Journal of Clinical Investigation, 2019).

In this experiment the target is T1, CDC7/DBF4 (Homo sapiens, UniProt O00311).
T1 construct: purchased Thermo Fisher Scientific (Life Technologies) SelectScreen
Nature of the experiment: SelectScreen LanthaScreen. In kind it is binding. The settings on record: read-out: % displacement. In a few lines: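 SelectScreen broad panel; activity (Z'LYTE, Adapta) plus binding formats. ATP: Km app for CSF1R Z'LYTE; 10 for CAMK1 Adapta. Readout = % per kinase.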

T1 sequence (O00311 whole entry): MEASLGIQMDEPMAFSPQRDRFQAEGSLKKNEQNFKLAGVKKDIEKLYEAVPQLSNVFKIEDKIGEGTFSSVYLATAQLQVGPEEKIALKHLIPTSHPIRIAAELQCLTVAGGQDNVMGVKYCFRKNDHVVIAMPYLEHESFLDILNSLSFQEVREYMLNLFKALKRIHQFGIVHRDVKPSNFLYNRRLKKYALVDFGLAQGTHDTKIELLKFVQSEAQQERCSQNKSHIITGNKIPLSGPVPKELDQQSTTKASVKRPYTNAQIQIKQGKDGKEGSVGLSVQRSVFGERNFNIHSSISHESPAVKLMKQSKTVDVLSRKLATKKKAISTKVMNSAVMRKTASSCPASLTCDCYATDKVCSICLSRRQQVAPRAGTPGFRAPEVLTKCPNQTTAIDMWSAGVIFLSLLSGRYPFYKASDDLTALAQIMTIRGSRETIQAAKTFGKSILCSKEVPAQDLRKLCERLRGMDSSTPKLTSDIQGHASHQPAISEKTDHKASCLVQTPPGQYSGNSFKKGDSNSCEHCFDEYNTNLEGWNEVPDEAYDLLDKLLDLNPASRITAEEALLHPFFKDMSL
T1 sequence (Q9UBU7 whole entry partner): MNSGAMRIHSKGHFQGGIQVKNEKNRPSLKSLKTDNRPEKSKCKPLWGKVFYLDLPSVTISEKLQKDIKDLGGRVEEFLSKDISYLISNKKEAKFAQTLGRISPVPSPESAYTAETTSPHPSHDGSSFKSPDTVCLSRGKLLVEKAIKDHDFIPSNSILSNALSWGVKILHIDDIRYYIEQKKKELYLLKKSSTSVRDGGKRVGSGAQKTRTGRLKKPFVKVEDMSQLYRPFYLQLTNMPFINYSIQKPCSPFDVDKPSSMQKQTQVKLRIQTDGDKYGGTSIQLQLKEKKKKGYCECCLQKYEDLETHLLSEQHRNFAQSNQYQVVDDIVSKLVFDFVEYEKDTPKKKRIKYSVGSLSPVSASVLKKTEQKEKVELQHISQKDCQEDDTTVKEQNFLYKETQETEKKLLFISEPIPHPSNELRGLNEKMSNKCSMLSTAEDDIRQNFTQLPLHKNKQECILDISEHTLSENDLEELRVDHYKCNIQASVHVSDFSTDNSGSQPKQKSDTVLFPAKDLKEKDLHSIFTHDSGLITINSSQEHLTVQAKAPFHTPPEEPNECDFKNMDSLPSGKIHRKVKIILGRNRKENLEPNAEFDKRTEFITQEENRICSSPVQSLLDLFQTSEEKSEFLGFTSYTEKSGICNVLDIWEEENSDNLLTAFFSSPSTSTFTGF

Turning to `CN(C(=O)CN1CCOCC1)c1ccc2sc3c(-c4cccc5c(=O)cc(N6CC7CCC(C6)O7)oc45)cccc3c2c1` [NU5455], the inhibition at 1 µM was 6%.
